Experimental data as given in US20230265151A1, “GIP/GLP1 CO-AGONIST COMPOUNDS” (priority 2020, published 2023).
Where two headings read alike, the source gives them in different places.

Tests used:
Format in all cases: cell-based
hGCGR = target: T1, hGCGR (Homo sapiens, UniProt P47871); test: Functional cAMP formation (HTRF) in HEK-293 clonal cells expressing hGCGR, 0.1% bovine casein, without or with 1.0% human serum albumin; conditions: geometric mean, read-out: hGCGR EC50, nM (SEM, n)
T1 construct: expressed in transfected cells
How it was run: (§1)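 Cells were stimulated with peptide for 30 min at 37° C, then lysed in buffer carrying cAMP-d2 and anti-cAMP Eu3+-cryptate for a competitive HTRF read after at least 60 min at room temperature. The 665/620 nm ratio was converted to nM cAMP against a standard curve.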

hGIPR = target: T2, hGIPR (Homo sapiens, UniProt P48546); test: Functional cAMP formation (HTRF) in HEK-293 clonal cells expressing hGIPR, 0.1% bovine casein, without or with 1.0% human serum albumin; conditions: for Emax: read-out: hGIPR Emax, % ± SEM; for EC50: geometric mean, read-out: hGIPR EC50, nM (SEM, n)
T2 construct: expressed in transfected cells
T2 sequence (P48546 22-466): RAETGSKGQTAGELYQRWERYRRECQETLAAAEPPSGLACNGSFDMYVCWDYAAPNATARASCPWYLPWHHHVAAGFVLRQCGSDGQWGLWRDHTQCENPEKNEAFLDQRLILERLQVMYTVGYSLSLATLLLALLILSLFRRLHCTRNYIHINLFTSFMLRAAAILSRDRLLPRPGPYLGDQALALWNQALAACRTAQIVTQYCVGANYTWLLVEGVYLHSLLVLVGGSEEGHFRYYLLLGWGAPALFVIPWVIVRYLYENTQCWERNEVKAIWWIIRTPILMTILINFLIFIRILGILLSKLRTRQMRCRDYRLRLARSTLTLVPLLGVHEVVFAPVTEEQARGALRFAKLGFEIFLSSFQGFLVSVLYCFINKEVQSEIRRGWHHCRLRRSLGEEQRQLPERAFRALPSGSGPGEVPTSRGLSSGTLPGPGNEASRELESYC
How it was run: as §1

hGLP-1R = hGLP-1R (Homo sapiens, UniProt P43220); test: Functional cAMP formation (HTRF) in HEK-293 clonal cells expressing hGLP-1R, 0.1% bovine casein, without or with 1.0% human serum albumin; design: expressed in transfected cells; conditions: for Emax: read-out: hGLP-1R Emax, % ± SEM; for EC50: geometric mean, read-out: hGLP-1R EC50, nM (SEM, n)
How it was run: as §1

[1] = 0.1% bovine casein and 1.0% human serum albumin, 37° C.
[2] = cAMP, incubated at 37° C., 0.1% bovine casein (no human serum albumin)
[3] = HEK293, 0.1% bovine casein and 1.0% human serum albumin, 37° C., percent of maximal response to GIP(1-42)NH2
[4] = HEK293, percent of maximal response to GIP(1-42)NH2, 37° C., 0.1% bovine casein, arithmetic mean
[5] = HEK293, 0.1% bovine casein and 1.0% human serum albumin, 37° C., percent of maximal response to GLP-1(7-36)NH2
[6] = HEK293, percent of maximal response to GLP-1(7-36)NH2, 37° C., 0.1% bovine casein, arithmetic mean

T1 sequence (P47871 26-477): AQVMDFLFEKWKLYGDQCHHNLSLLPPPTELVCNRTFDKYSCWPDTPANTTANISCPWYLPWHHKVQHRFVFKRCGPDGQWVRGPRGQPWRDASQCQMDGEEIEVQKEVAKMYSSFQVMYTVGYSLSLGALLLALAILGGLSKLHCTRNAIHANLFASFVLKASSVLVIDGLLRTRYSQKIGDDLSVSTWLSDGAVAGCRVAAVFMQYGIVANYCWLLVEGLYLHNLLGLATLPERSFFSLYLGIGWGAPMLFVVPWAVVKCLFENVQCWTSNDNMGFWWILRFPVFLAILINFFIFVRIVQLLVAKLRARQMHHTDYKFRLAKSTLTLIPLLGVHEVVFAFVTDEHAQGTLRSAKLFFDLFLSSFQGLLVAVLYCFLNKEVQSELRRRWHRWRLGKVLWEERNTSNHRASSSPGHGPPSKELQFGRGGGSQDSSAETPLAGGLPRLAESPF
hGLP-1R, sequence (P43220 24-463): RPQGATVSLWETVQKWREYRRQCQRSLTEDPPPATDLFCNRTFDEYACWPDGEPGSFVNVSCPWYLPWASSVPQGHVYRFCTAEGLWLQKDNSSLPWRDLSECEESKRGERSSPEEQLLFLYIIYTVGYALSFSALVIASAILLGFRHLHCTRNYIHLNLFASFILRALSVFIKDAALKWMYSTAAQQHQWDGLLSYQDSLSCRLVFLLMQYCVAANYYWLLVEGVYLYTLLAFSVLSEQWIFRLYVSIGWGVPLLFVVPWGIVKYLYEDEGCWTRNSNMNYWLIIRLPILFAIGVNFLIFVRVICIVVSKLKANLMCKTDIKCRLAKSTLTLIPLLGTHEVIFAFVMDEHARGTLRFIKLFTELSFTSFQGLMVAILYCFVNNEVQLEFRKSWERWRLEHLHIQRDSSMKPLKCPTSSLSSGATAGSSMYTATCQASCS

SMILES | EC50 (hGCGR; [1]) [nM] | EC50 (hGCGR; [2]) [nM] | Emax (hGIPR; [3]) [%] | Emax (hGIPR; [4]) [%] | EC50 (hGIPR; [2]) [nM] | Emax (hGLP-1R; [5]) [%] | Emax (hGLP-1R; [6]) [%] | EC50 (hGIPR; [1]) [nM] | EC50 (hGLP-1R; [1]) [nM] | EC50 (hGLP-1R; [2]) [nM]
CC[C@H](C)[C@H](NC(=O)[C@H](CC(C)C)NC(=O)[C@](C)(Cc1ccc(O)cc1)NC(=O)[C@@H](CCC(=O)O)NC(=O)[C@@H](NC(=O)[C@H](Cc1ccccc1Cl)NC(=O)[C@H](CCC(=O)O)NC(=O)C(C)(C)NC(=O)[C@H](CCC(N)=O)NC(=O)[C@H](C)NC(=O)[C@H](CCCCNC(=O)COCCOCCNC(=O)COCCOCCNC(=O)CC[C@H](NC(=O)CCCCCCCCCCCCC(=O)O)C(=O)O)NC(=O)[C@H](CCCN)NC(=O)[C@H](CC(=O)O)NC(=O)[C@H](CC(C)C)NC(=O)[C@](C)(CC(C)C)NC(=O)[C@@H](NC(=O)[C@H](CO)NC(=O)[C@H](Cc1ccncc1)NC(=O)[C@H](CC(=O)O)NC(=O)[C@H](CO)NC(=O)[C@@H](NC(=O)[C@](C)(Cc1ccccc1F)NC(=O)[C@@H](NC(=O)CNC(=O)[C@H](CCC(=O)O)NC(=O)C(C)(C)NC(=O)[C@@H](N)Cc1ccc(O)cc1)[C@@H](C)O)[C@@H](C)O)[C@@H](C)CC)[C@@H](C)CC)C(=O)N[C@@H](CCC(=O)O)C(=O)NCC(=O)NCC(=O)N[C@@H](CCCCNC(=O)COCCOCCNC(=O)COCCOCCNC(=O)CC[C@H](NC(=O)CCCCCCCCCCCCC(=O)O)C(=O)O)C(=O)N[C@@H](CO)C(=O)N[C@@H](CO)C(=O)NCC(=O)N[C@@H](C)C(=O)N1CCC[C@H]1C(=O)N1CCC[C@H]1C(=O)N1CCC[C@H]1C(=O)N[C@@H](CO)C(N)=O [Example 61] | > 9950 | > 9950 | 92.8 | 88.2 | 0.012 | 89.7 | 82.9 |  |  | 
CC[C@H](C)[C@H](NC(=O)[C@H](CC(C)C)NC(=O)[C@](C)(Cc1ccc(O)cc1)NC(=O)[C@@H](CCC(=O)O)NC(=O)[C@@H](NC(=O)[C@H](Cc1ccccc1F)NC(=O)[C@H](CCC(=O)O)NC(=O)C(C)(C)NC(=O)[C@H](CCC(N)=O)NC(=O)[C@H](C)NC(=O)[C@H](CCCCNC(=O)COCCOCCNC(=O)COCCOCCNC(=O)CC[C@H](NC(=O)CCCCCCCCCCCCC(=O)O)C(=O)O)NC(=O)[C@H](CCCN)NC(=O)[C@H](CC(=O)O)NC(=O)[C@H](CC(C)C)NC(=O)[C@](C)(CC(C)C)NC(=O)[C@@H](NC(=O)[C@H](CO)NC(=O)[C@H](Cc1ccncc1)NC(=O)[C@H](CC(=O)O)NC(=O)[C@H](CO)NC(=O)[C@@H](NC(=O)[C@](C)(Cc1ccccc1F)NC(=O)[C@@H](NC(=O)CNC(=O)[C@H](CCC(=O)O)NC(=O)C(C)(C)NC(=O)[C@@H](N)Cc1ccc(O)cc1)[C@@H](C)O)[C@@H](C)O)[C@@H](C)CC)[C@@H](C)CC)C(=O)N[C@@H](CCC(=O)O)C(=O)NCC(=O)NCC(=O)N[C@@H](CCCCNC(=O)COCCOCCNC(=O)COCCOCCNC(=O)CC[C@H](NC(=O)CCCCCCCCCCCCC(=O)O)C(=O)O)C(=O)N[C@@H](CO)C(=O)N[C@@H](CO)C(=O)NCC(=O)N[C@@H](C)C(=O)N1CCC[C@H]1C(=O)N1CCC[C@H]1C(=O)N1CCC[C@H]1C(=O)N[C@@H](CO)C(N)=O [Example 63] | > 9950 | > 9950 |  |  | 0.0176 | 98 | 90.6 | 0.771 |  | 
CC[C@H](C)[C@H](NC(=O)[C@H](CC(C)C)NC(=O)[C@](C)(Cc1ccc(O)cc1)NC(=O)[C@@H](CCC(=O)O)NC(=O)[C@@H](NC(=O)[C@H](Cc1cccc2ccccc12)NC(=O)[C@H](CCC(=O)O)NC(=O)C(C)(C)NC(=O)[C@H](CCC(N)=O)NC(=O)[C@H](C)NC(=O)[C@H](CCCCNC(=O)COCCOCCNC(=O)COCCOCCNC(=O)CC[C@H](NC(=O)CCCCCCCCCCCCC(=O)O)C(=O)O)NC(=O)[C@H](CCCN)NC(=O)[C@H](CC(=O)O)NC(=O)[C@H](CC(C)C)NC(=O)[C@](C)(CC(C)C)NC(=O)[C@@H](NC(=O)[C@H](CO)NC(=O)[C@H](Cc1ccncc1)NC(=O)[C@H](CC(=O)O)NC(=O)[C@H](CO)NC(=O)[C@@H](NC(=O)[C@](C)(Cc1ccccc1F)NC(=O)[C@@H](NC(=O)CNC(=O)[C@H](CCC(=O)O)NC(=O)C(C)(C)NC(=O)[C@@H](N)Cc1ccc(O)cc1)[C@@H](C)O)[C@@H](C)O)[C@@H](C)CC)[C@@H](C)CC)C(=O)N[C@@H](CCC(=O)O)C(=O)NCC(=O)NCC(=O)N[C@@H](CCCCNC(=O)COCCOCCNC(=O)COCCOCCNC(=O)CC[C@H](NC(=O)CCCCCCCCCCCCC(=O)O)C(=O)O)C(=O)N[C@@H](CO)C(=O)N[C@@H](CO)C(=O)NCC(=O)N[C@@H](C)C(=O)N1CCC[C@H]1C(=O)N1CCC[C@H]1C(=O)N1CCC[C@H]1C(=O)N[C@@H](CO)C(N)=O [Example 66] | > 9950 | > 9950 | 90.6 ± 3.37 | 93.5 ± 1.39 | 0.0168 | 93 ± 2.36 |  |  | 27 | 
CC[C@H](C)[C@H](NC(=O)[C@H](CC(C)C)NC(=O)[C@H](CCCCNC(=O)COCCOCCNC(=O)COCCOCCNC(=O)CC[C@H](NC(=O)CCCc1ccc(C(C)(C)C)cc1)C(=O)O)NC(=O)[C@@H](CCC(=O)O)NC(=O)[C@@H](NC(=O)[C@H](Cc1ccccc1)NC(=O)[C@H](CCC(=O)O)NC(=O)C(C)(C)NC(=O)[C@H](CCC(N)=O)NC(=O)[C@H](C)NC(=O)[C@H](CCCCNC(=O)COCCOCCNC(=O)COCCOCCNC(=O)CC[C@H](NC(=O)CCCc1ccc(C(C)(C)C)cc1)C(=O)O)NC(=O)[C@H](CCCN)NC(=O)[C@H](CC(=O)O)NC(=O)[C@H](CC(C)C)NC(=O)[C@](C)(CC(C)C)NC(=O)[C@@H](NC(=O)[C@H](CO)NC(=O)[C@H](Cc1ccncc1)NC(=O)[C@H](CC(=O)O)NC(=O)[C@H](CO)NC(=O)[C@@H](NC(=O)[C@](C)(Cc1ccccc1F)NC(=O)[C@@H](NC(=O)CNC(=O)[C@H](CCC(=O)O)NC(=O)C(C)(C)NC(=O)[C@@H](N)Cc1ccc(O)cc1)[C@@H](C)O)[C@@H](C)O)[C@@H](C)CC)[C@@H](C)CC)C(=O)N[C@@H](CCC(=O)O)C(=O)NCC(=O)NCC(=O)N1CCC[C@H]1C(=O)N[C@@H](CO)C(=O)N[C@@H](CO)C(=O)NCC(=O)N[C@@H](C)C(=O)N1CCC[C@H]1C(=O)N1CCC[C@H]1C(=O)N1CCC[C@H]1C(=O)N[C@@H](CO)C(N)=O [Example 67] | > 9950 | > 9950 | 91.9 | 95 |  |  | 91.7 | 0.0417 | 12 | 2.63
CC[C@H](C)[C@H](NC(=O)[C@H](CC(C)C)NC(=O)[C@H](CCCCNC(=O)COCCOCCNC(=O)COCCOCCNC(=O)CC[C@H](NC(=O)CCCc1ccc(C(C)(C)C)cc1)C(=O)O)NC(=O)[C@H](CCC(=O)O)NC(=O)[C@@H](NC(=O)[C@H](Cc1ccccc1)NC(=O)[C@H](CCC(=O)O)NC(=O)C(C)(C)NC(=O)[C@H](CCC(N)=O)NC(=O)[C@H](C)NC(=O)[C@H](CCCCNC(=O)COCCOCCNC(=O)COCCOCCNC(=O)CC[C@H](NC(=O)CCCc1ccc(C(C)(C)C)cc1)C(=O)O)NC(=O)[C@H](CCCN)NC(=O)[C@H](CC(=O)O)NC(=O)[C@H](CC(C)C)NC(=O)[C@](C)(CC(C)C)NC(=O)[C@@H](NC(=O)[C@H](CO)NC(=O)[C@H](Cc1ccncc1)NC(=O)[C@H](CC(=O)O)NC(=O)[C@H](CO)NC(=O)[C@@H](NC(=O)[C@](C)(Cc1ccccc1F)NC(=O)[C@@H](NC(=O)CNC(=O)[C@H](CCC(=O)O)NC(=O)C(C)(C)NC(=O)[C@@H](N)Cc1ccc(O)cc1)[C@@H](C)O)[C@@H](C)O)[C@@H](C)CC)[C@@H](C)CC)C(=O)N[C@@H](CCC(=O)O)C(=O)NCC(=O)NCC(=O)N1CCC[C@H]1C(=O)N[C@@H](CO)C(=O)N[C@@H](CO)C(=O)NCC(=O)N[C@@H](C)C(=O)N1CCC[C@H]1C(=O)N1CCC[C@H]1C(=O)N1CCC[C@H]1C(=O)N[C@@H](CO)C(N)=O [Example 68] | > 9950 | > 9950 | 92.4 |  | 0.0105 |  | 95.9 | 0.0831 | 5.79 | 
